Measured values: patent publication US11040981B2, “Pyrrolotriazine compounds and methods of inhibiting TAM kinases” (Syros Pharmaceuticals, Inc., priority 2017, dated 2021)

Key:
[1] = target: T1, AXL (Homo sapiens, UniProt P30530); assay: TR-FRET kinase activity assay, AXL; assay type: biochemical; conditions: ATP at Km, 60 minutes
T1 sequence (P30530 26-894): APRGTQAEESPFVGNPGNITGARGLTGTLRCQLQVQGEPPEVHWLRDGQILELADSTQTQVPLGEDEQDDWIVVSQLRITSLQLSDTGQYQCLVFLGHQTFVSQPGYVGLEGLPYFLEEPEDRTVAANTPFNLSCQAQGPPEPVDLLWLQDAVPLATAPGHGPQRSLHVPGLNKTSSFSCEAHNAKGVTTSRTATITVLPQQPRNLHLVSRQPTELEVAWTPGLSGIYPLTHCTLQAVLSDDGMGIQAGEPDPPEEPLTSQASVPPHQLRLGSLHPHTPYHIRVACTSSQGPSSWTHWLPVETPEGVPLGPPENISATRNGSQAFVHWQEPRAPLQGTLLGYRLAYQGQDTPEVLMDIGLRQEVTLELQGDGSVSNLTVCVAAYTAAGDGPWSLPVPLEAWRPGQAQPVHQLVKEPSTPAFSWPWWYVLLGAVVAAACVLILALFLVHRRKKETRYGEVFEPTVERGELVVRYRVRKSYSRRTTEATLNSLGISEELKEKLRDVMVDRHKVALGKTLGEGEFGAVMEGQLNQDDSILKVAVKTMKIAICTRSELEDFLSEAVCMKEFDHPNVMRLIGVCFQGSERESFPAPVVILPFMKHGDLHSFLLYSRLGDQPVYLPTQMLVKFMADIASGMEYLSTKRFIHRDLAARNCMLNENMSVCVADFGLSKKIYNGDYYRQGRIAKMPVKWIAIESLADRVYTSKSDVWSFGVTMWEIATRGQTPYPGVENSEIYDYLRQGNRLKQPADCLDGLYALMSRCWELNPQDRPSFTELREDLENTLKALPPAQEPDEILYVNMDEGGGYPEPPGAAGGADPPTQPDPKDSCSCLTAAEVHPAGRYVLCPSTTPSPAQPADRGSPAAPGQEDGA
How it was run: (§1)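 Enzyme, fluorescent peptide substrate and compound were mixed, and the reaction was started with ATP at each kinase's Km, in 50 mM HEPES pH 7.5, 10 mM MgCl2, 1 mM EGTA, 0.01% Brij 35, 1 mM DTT at RT. After 60 minutes EDTA quench, Eu-labelled phospho-specific antibody was added for 30 minutes, and IC50 was derived from TR-FRET signal loss.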

[2] = target: T2, MERTK (Homo sapiens, UniProt Q12866); assay: TR-FRET kinase activity assay, MERTK; assay type: biochemical; conditions: for IC50: TR-FRET activity assay, ATP at Km, 60 minutes, read-out: Mer IC50; for FLT3/Mer ratio (FLT3 IC50/Mer IC50): ratio of Mer to FLT3: FLT3 IC50/Mer IC50
T2 sequence (Q12866 21-999): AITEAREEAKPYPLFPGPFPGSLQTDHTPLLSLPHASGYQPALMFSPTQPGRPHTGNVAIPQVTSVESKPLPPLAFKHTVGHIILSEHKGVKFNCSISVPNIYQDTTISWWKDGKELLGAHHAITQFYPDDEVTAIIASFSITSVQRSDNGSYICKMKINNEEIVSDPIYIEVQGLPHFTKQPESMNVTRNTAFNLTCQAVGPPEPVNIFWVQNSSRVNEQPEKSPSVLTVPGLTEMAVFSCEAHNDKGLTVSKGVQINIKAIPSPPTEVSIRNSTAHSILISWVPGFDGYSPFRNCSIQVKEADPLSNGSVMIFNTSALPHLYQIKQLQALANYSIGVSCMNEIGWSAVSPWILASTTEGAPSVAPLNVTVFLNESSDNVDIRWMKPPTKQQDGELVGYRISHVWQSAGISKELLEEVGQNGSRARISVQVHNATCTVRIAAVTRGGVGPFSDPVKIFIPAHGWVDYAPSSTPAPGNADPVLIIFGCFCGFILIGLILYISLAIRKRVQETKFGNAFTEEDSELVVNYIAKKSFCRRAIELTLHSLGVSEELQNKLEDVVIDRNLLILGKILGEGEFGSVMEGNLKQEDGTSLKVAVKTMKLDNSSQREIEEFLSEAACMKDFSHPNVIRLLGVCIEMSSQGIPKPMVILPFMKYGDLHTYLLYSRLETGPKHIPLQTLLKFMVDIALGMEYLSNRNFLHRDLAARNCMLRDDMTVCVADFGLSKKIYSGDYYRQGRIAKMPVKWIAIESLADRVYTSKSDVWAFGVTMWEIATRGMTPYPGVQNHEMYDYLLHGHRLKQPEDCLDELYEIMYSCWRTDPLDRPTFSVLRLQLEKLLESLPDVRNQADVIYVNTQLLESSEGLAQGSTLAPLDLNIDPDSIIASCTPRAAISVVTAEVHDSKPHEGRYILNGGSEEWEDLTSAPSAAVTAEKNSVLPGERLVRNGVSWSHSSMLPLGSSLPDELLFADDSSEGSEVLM
How it was run: as §1

| IC50 [1] [nM] | IC50 [2] [nM] | FLT3/Mer ratio (FLT3 IC50/Mer IC50) [2] | Compound |
| --- | --- | --- | --- |
| ≤ 100 | ≤ 100 | +++ (“+++” represents a ratio of >100) | COC[C@H](C)Nc1ncc2c(-c3ccnc(OC4CCN(C)CC4)c3)cc([C@H]3CC[C@H](O)CC3)n2n1 [Compound 342] |
| ≤ 100 | ≤ 100 | +++ (“+++” represents a ratio of >100) | COC[C@H](C)Nc1ncc2c(-c3ccnc(OC(C)C)c3)cc([C@H]3CC[C@H](O)CC3)n2n1 [Compound 343] |
| ≤ 100 | ≤ 100 | +++ (“+++” represents a ratio of >100) | COC[C@H](C)Nc1ncc2c(-c3ccnc(N4CCN(C(C)=O)CC4)c3)cc([C@H]3CC[C@H](O)CC3)n2n1 [Compound 344] |
| ≤ 100 | ≤ 100 | +++ (“+++” represents a ratio of >100) | COCCOc1cc(-c2cc([C@H]3CC[C@H](O)CC3)n3nc(N[C@@H](C)COC)ncc23)ccn1 [Compound 345] |
